Experimental data reported in ChEMBL document CHEMBL5370593, “Discovery and In Vitro Characterization of SPL028: Deuterated N,N-Dimethyltryptamine” (ACS Med Chem Lett, 2023).
The source made the active and inactive calls. The calls are words filed in the database; no cut-off is given here.

Legend:
Format in all cases: cell-based
[1] = target: 5-hydroxytryptamine receptor 7 (Homo sapiens, UniProt P34969); test: Displacement of [3H] LSD from human recombinant 5-HT7 receptor expressed in CHO-K1 cells at 10 uM incubated for 120 mins by spectrophotometric analysis relative to control
[2] = target: 5-hydroxytryptamine receptor 2B (Homo sapiens) (UniProt P41595); test: Displacement of [3H] LSD from human recombinant 5-HT2B receptor expressed in CHO-K1 cells at 10 uM incubated for 60 mins by spectrophotometric analysis relative to control
[3] = target: Alpha-2C adrenergic receptor (Homo sapiens) (UniProt P18825); test: Displacement of [3H]-rauwolscine from human recombinant adrenergic alpha-2c receptor expressed in CHO-K1 cells at 10 uM incubated for 60 mins by […] relative to control
[4] = target: Alpha-1D adrenergic receptor (Homo sapiens) (UniProt P25100); test: Displacement of [3H] prazosin from human recombinant adrenergic alpha-1d receptor expressed in HEK293 cells at 10 uM incubated for 60 mins by spectrophotometric analysis relative to control
[5] = target: T1, Neuronal acetylcholine receptor; alpha3/beta4 (Homo sapiens, UniProt P30926+P32297); test: Displacement of [125I]-epibatidine from human recombinant nAChR alpha3beta4 receptor expressed in CHO-K1 cells at 10 uM incubated for 60 mins by spectrophotometric analysis relative to control
[6] = target: 5-hydroxytryptamine receptor 1A (Homo sapiens) (UniProt P08908); test: Displacement of [3H] 8-OH-DPAT from human recombinant 5-HT1A receptor expressed in CHO-K1 cells at 10 uM incubated for 60 mins by spectrophotometric analysis relative to control
[7] = target: Histamine H1 receptor (Homo sapiens) (UniProt P35367); test: Displacement of [3H] pyrilamine from human recombinant histamine H1 receptor expressed in CHO-K1 cells at 10 uM incubated for 180 mins by spectrophotometric analysis relative to control
[8] = target: Alpha-1B adrenergic receptor (Homo sapiens) (UniProt P35368); test: Displacement of [3H] prazosin from human recombinant adrenergic alpha-1b receptor expressed in […] cells at 10 uM incubated for 60 mins by spectrophotometric analysis relative to control
[9] = target: 5-hydroxytryptamine receptor 6 (Homo sapiens, UniProt P50406); test: Displacement of [3H] LSD from human recombinant 5-HT6 receptor expressed in human HeLa cells at 10 uM incubated for 120 mins by spectrophotometric analysis relative to control
[10] = target: Alpha-1A adrenergic receptor (Homo sapiens) (UniProt P35348); test: Displacement of [3H] prazosin from human recombinant adrenergic alpha-1a receptor expressed in […] cells at 10 uM incubated for 60 mins by spectrophotometric analysis relative to control
[11] = target: Alpha-2B adrenergic receptor (Homo sapiens) (UniProt P18089); test: Displacement of [3H]-rauwolscine from human recombinant adrenergic alpha-2b receptor expressed in […] cells at 10 uM incubated for 60 mins by […] relative to control
[12] = target: 5-hydroxytryptamine receptor 1B (Homo sapiens, UniProt P28222); test: Displacement of [3H] GR125743 from human recombinant 5-HT1B receptor expressed in […] cells at 10 uM incubated for 90 mins by spectrophotometric analysis relative to control
[13] = target: Alpha-2A adrenergic receptor (Homo sapiens) (UniProt P08913); test: Displacement of [3H]-rauwolscine from human recombinant adrenergic alpha-2A receptor expressed in CHO-K1 cells at 10 uM incubated for 60 mins by spectrophotometric analysis relative to control
[14] = target: 5-hydroxytryptamine receptor 5A (Homo sapiens, UniProt P47898); test: Displacement of [3H] LSD from human recombinant 5-HT5A receptor expressed in CHO-K1 cells at 10 uM incubated for 60 mins by spectrophotometric analysis relative to control
[15] = target: T1, Neuronal acetylcholine receptor; alpha3/beta4; test: Displacement of [125I]-epibatidine from human recombinant nAChR alpha3beta4 receptor expressed in CHO-K1 cells incubated for 60 mins by spectrophotometric analysis
[16] = target: Sigma non-opioid intracellular receptor 1 (Homo sapiens) (UniProt Q99720); test: Displacement of [3H] pentazocine from human sigma 1 receptor expressed in human Jurkat cells at 10 uM incubated for 120 mins by spectrophotometric analysis relative to control; conditions: tested as the 2H-labelled form
[17] = target: Sigma non-opioid intracellular receptor 1 (Homo sapiens) (UniProt Q99720); test: Displacement of [3H] pentazocine from human sigma 1 receptor expressed in human Jurkat cells at <=10 uM incubated for 120 mins by spectrophotometric analysis

Chain of Sigma non-opioid intracellular receptor 1 (Homo sapiens) (Q99720 whole entry): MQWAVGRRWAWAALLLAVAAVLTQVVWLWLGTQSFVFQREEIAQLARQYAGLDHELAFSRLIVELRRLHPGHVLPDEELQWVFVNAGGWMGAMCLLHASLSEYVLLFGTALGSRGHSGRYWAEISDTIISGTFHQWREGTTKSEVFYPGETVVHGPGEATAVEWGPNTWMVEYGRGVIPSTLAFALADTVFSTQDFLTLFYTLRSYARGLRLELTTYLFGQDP
T1 sequence (P30926 whole entry): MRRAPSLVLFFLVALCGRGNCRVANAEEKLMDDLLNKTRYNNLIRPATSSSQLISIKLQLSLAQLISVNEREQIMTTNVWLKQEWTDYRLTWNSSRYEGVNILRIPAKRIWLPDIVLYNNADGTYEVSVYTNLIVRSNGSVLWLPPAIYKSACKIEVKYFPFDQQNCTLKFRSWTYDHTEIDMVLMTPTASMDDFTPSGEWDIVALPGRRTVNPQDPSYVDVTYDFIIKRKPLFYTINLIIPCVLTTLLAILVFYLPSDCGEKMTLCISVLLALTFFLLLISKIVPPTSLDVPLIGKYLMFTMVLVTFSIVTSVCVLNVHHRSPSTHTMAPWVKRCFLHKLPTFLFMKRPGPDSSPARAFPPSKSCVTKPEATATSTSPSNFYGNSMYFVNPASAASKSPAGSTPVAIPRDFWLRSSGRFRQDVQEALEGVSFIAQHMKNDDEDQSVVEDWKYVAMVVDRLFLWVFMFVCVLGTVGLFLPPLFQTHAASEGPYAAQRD
T1 sequence (P32297 whole entry): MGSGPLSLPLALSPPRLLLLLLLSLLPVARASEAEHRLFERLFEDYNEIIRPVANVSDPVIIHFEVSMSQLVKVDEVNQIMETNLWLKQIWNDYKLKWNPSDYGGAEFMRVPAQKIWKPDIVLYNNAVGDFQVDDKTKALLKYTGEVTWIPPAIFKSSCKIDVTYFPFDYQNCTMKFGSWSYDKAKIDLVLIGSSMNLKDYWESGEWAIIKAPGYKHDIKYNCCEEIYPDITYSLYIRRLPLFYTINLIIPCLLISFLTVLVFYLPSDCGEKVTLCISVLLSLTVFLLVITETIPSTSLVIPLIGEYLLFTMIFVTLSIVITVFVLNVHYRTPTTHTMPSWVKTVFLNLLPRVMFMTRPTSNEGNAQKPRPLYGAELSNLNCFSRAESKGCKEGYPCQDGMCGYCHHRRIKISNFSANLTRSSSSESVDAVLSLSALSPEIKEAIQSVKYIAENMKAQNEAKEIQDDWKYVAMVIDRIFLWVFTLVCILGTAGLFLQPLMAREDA
Chain of 5-hydroxytryptamine receptor 1A (Homo sapiens) (P08908 whole entry): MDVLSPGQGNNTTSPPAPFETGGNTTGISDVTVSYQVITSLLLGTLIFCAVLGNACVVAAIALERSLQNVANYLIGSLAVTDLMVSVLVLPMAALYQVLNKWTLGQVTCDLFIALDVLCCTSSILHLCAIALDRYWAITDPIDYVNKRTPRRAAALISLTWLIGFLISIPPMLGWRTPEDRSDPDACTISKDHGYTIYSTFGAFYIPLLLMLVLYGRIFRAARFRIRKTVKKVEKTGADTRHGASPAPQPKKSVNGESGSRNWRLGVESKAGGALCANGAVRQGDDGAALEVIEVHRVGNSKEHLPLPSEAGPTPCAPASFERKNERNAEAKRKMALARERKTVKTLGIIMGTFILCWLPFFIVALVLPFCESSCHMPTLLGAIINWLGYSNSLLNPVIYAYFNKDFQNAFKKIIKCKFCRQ
Chain of Alpha-2B adrenergic receptor (Homo sapiens) (P18089 whole entry): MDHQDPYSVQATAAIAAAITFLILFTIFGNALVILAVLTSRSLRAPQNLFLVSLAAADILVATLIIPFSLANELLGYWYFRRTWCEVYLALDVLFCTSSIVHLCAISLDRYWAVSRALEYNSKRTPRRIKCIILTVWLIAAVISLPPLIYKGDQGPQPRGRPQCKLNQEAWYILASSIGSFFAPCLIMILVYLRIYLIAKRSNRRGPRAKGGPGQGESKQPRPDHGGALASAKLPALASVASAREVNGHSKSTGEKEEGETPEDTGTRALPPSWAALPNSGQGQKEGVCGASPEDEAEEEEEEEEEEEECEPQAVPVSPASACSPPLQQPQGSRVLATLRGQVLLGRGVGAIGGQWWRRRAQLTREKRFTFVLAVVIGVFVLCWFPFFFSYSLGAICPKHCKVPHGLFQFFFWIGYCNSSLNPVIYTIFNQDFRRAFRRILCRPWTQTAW
Chain of Alpha-1B adrenergic receptor (Homo sapiens) (P35368 whole entry): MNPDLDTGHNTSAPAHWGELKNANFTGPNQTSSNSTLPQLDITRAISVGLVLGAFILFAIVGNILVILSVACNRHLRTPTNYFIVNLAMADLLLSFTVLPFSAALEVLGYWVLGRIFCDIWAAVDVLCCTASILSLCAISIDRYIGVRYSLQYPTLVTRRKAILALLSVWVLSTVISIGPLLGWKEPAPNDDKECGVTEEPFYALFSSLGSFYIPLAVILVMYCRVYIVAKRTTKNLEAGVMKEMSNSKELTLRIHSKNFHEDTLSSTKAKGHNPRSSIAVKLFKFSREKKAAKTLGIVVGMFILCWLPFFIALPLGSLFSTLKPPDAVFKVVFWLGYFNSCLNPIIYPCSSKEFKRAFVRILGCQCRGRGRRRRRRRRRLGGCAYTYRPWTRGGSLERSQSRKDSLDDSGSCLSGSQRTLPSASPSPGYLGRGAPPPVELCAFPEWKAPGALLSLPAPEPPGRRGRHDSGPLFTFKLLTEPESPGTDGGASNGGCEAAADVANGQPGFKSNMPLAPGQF
Chain of Alpha-2A adrenergic receptor (Homo sapiens) (P08913 whole entry): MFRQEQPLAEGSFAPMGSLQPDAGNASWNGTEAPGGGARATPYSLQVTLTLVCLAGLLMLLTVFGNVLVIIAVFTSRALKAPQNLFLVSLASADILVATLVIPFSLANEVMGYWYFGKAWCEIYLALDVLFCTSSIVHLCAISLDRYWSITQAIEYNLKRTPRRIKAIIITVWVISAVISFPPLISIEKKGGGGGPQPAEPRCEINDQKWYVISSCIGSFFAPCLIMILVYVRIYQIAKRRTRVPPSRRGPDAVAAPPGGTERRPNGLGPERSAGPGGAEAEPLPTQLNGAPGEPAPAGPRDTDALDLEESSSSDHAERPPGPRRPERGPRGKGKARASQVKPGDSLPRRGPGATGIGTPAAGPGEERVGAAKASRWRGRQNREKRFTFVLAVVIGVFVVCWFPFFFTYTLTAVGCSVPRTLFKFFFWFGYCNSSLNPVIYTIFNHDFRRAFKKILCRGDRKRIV
Chain of 5-hydroxytryptamine receptor 2B (Homo sapiens) (P41595 whole entry): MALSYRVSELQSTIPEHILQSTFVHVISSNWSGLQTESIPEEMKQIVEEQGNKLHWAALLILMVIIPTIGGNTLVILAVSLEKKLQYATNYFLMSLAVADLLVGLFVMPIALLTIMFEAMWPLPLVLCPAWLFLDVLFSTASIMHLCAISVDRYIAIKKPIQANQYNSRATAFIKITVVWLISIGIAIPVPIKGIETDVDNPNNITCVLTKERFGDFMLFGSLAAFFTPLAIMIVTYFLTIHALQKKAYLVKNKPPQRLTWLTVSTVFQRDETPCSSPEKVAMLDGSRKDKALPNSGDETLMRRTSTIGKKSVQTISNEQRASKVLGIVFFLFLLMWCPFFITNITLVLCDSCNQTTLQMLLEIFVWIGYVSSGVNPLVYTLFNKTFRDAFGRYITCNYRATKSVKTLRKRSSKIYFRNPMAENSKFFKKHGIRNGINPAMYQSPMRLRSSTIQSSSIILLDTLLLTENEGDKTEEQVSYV
Chain of 5-hydroxytryptamine receptor 6 (P50406 whole entry): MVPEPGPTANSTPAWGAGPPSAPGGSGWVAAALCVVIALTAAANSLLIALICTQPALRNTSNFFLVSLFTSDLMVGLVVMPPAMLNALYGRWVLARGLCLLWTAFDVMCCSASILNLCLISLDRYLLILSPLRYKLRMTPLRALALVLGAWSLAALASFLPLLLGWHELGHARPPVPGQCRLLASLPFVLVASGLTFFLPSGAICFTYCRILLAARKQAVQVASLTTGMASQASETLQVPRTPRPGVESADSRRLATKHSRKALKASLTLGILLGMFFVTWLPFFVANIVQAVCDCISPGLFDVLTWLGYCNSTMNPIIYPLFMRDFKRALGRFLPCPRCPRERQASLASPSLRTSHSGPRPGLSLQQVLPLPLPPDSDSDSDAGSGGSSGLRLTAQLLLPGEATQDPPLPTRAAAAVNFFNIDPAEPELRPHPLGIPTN
Chain of Histamine H1 receptor (Homo sapiens) (P35367 whole entry): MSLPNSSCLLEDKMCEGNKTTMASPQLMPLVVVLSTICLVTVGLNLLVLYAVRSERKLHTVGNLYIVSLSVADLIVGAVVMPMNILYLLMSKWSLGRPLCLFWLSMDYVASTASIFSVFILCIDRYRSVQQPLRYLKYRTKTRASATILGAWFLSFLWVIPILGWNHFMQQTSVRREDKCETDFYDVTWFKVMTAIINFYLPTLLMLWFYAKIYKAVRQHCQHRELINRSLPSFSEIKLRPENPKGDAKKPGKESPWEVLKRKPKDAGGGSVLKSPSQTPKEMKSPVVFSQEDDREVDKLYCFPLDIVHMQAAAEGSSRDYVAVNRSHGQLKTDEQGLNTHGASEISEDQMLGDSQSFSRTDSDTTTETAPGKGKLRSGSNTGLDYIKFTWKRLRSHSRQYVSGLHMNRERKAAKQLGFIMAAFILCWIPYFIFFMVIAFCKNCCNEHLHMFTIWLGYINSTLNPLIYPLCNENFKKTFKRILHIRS
Chain of Alpha-1A adrenergic receptor (Homo sapiens) (P35348 whole entry): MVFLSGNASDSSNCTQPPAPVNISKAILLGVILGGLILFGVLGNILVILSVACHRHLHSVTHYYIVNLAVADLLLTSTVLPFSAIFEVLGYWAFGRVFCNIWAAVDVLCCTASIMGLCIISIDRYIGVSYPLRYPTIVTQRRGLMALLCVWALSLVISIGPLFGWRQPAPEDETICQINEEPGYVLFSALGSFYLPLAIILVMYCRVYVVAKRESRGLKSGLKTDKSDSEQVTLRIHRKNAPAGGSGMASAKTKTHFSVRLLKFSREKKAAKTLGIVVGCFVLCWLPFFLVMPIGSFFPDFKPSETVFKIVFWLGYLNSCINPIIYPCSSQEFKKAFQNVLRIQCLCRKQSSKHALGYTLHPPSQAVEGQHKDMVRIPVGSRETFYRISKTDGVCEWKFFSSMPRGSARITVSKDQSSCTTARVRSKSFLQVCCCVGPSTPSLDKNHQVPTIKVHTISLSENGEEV

## CN(C)CCc1c[nH]c2ccccc12.O=C(O)/C=C/C(=O)O
[1]
  inhibition: 90.4%
[1]; tested as the 2H-labelled form
  inhibition: 95.5%
[2]
  inhibition: 95.5%
[2]; tested as the 2H-labelled form
  inhibition: 96.5%
[3]
  inhibition: 58.4%
[3]; tested as the 2H-labelled form
  inhibition: 57.6%
[4]
  inhibition: 54.1%
[4]; tested as the 2H-labelled form
  inhibition: 63.2%
[5]
  inhibition: 64.6%
[5]; tested as the 2H-labelled form
  inhibition: 63.5%
[6]
  inhibition: 96%
[6]; tested as the 2H-labelled form
  inhibition: 97.6%
[7]
  inhibition: 88.8%
[7]; tested as the 2H-labelled form
  inhibition: 91.4%
[8]
  inhibition: 85.8%
[8]; tested as the 2H-labelled form
  inhibition: 87.2%
[9]
  inhibition: 86.1%
[9]; tested as the 2H-labelled form
  inhibition: 86.2%
[10]
  inhibition: 85.1%
[10]; tested as the 2H-labelled form
  inhibition: 85.1%
[11]
  inhibition: 81.1%
[11]; tested as the 2H-labelled form
  inhibition: 79.8%
[12]
  inhibition: 73.1%
[12]; tested as the 2H-labelled form
  inhibition: 75.5%
[13]
  inhibition: 67.1%
[13]; tested as the 2H-labelled form
  inhibition: 69.1%
[14]
  inhibition: 72.7%
[14]; tested as the 2H-labelled form
  inhibition: 70.2%
[15]
  IC50: 4.2 µM
[16]
  inhibition: 45%
[17]
  inhibition: inactive
[17]; tested as the 2H-labelled form
  inhibition: inactive

## O=C(O)/C=C/C(=O)O.[2H]C([2H])(Cc1c[nH]c2ccccc12)N(C)C
[15]
  IC50: 4.4 µM
